According to patent US6245917A, “Crystalline sodium phenytoin monohydrate” (Warner-Lambert Company, priority 1999, dated 2001):

Columns and labels:
[1] = Repeated water uptake study with solvent-free SPM (dichloromethane preparation); assay type: physicochemical
Source text: Study of weight change under controlled humidity conditions, samples were placed in open vials, which were placed in closed controlled-humidity jars. Relative humidities were controlled using saturated aqueous salt solutions: 58% RH, NaBr; 75% RH, (NH4)2 SO4; 76%, sodium acetate; 84% RH, KBr.
A possible cause of the observed weight loss is that some reaction solvent (toluene in this case) from the preparation of SPM remained on the solid and evaporated in the humidity jars. To test this theory, it was decided to prepare SPM, show it to be solvent-free, and repeat the water uptake studies. Dichloromethane was chosen as the organic solvent for the preparation rather than toluene because its lower boiling point should allow it to be removed from the solid more easily and completely. SPM was made by stirring a slurry of SPA and one equivalent of water in dichloromethane for 2 days, then isolation by filtration and air-drying of the solid SPM.
The remainder of the SPM sample was allowed to dry in an open jar under ambient conditions for about 1 week. It was then characterized by XRPD elemental analysis, and Karl Fischer (KF) analysis. The sample appears to be pure SPM containing very little, if any, residual solvent.
Both SPM and SPA increased in weight about 20% when equilibrium was reached (constant weight) at each humidity utilized. The samples were analyzed by XRPD after completion of the water uptake experiments. […] The nature of this form has not been determined.

[2] = DSC and TGA thermal analyses; assay type: physicochemical
Procedure: Differential scanning calorimetry (DSC) experiments were performed on a Dupont DSC 2000 and thermogravimetric analyses (TGA) were performed on a Dupont TGA 2000. Nitrogen was used as the purge gas and heating rates were 10° C./minute. Standards were run prior to sample analyses; Sn for DSC and calcium oxalate for TGA.
Both SPM and SPA were analyzed by x-ray powder diffraction (XRPD), infrared (IR) spectroscopy, solid-state nuclear magnetic resonance (SSNMR) spectroscopy, differential scanning calorimetry (DSC) and thermogravimetric analysis (TGA). The XRPD patterns of SPM and SPA are quite different and distinguishable. While the IR and SSNMR spectra of SPM and SPA are different, the differences are subtle. SPM and SPA behave quite differently on both DSC and TGA thermal analyses. SPA undergoes endothermic transitions at 364° C. and 409° C. that are accompanied by a weight loss of 72%.

O=C1NC(=O)C(c2ccccc2)(c2ccccc2)N1 [SPM, sodium phenytoin monohydrate]
sample weight ([1]; 58% RH, day 0 (starting weight), monohydrate): 1.5057 g
change in starting weight ([1]; 58% RH, day 1, monohydrate): +0.0186 g
sample weight ([1]; 58% RH, day 1, monohydrate): 1.5243 g
change in starting weight ([1]; 58% RH, day 2, monohydrate): +0.0269 g
sample weight ([1]; 58% RH, day 2, monohydrate): 1.5326 g
change in starting weight ([1]; 58% RH, day 3, monohydrate): +0.0384 g
sample weight ([1]; 58% RH, day 3, monohydrate): 1.5441 g
change in starting weight ([1]; 58% RH, day 4, monohydrate): +0.0510 g
sample weight ([1]; 58% RH, day 4, monohydrate): 1.5567 g
change in starting weight ([1]; 58% RH, day 5, monohydrate): +0.0620 g
sample weight ([1]; 58% RH, day 5, monohydrate): 1.5677 g
change in starting weight ([1]; 58% RH, day 6, monohydrate): +0.0717 g
sample weight ([1]; 58% RH, day 6, monohydrate): 1.5774 g
change in starting weight ([1]; 58% RH, day 7, monohydrate): +0.0816 g
sample weight ([1]; 58% RH, day 7, monohydrate): 1.5873 g
change in starting weight ([1]; 58% RH, day 8, monohydrate): +0.0940 g
sample weight ([1]; 58% RH, day 8, monohydrate): 1.5997 g
change in starting weight ([1]; 58% RH, day 10, monohydrate): +0.1185 g
sample weight ([1]; 58% RH, day 10, monohydrate): 1.6242 g
change in starting weight ([1]; 58% RH, day 11, monohydrate): +0.1340 g
sample weight ([1]; 58% RH, day 11, monohydrate): 1.6397 g
change in starting weight ([1]; 58% RH, day 12, monohydrate): +0.1486 g
sample weight ([1]; 58% RH, day 12, monohydrate): 1.6543 g
change in starting weight ([1]; 58% RH, day 13, monohydrate): +0.1555 g
sample weight ([1]; 58% RH, day 13, monohydrate): 1.6612 g
change in starting weight ([1]; 58% RH, day 14, monohydrate): +0.1633 g
sample weight ([1]; 58% RH, day 14, monohydrate): 1.6690 g
change in starting weight ([1]; 58% RH, day 15, monohydrate): +0.1719 g
sample weight ([1]; 58% RH, day 15, monohydrate): 1.6776 g
change in starting weight ([1]; 58% RH, day 16, monohydrate): +0.1794 g
sample weight ([1]; 58% RH, day 16, monohydrate): 1.6851 g
change in starting weight ([1]; 58% RH, day 17, monohydrate): +0.1860 g
sample weight ([1]; 58% RH, day 17, monohydrate): 1.6917 g
change in starting weight ([1]; 58% RH, day 21, monohydrate): +0.2176 g
sample weight ([1]; 58% RH, day 21, monohydrate): 1.7233 g
change in starting weight ([1]; 58% RH, day 23, monohydrate): +0.2323 g
sample weight ([1]; 58% RH, day 23, monohydrate): 1.7380 g
change in starting weight ([1]; 58% RH, day 26, monohydrate): +0.2525 g
sample weight ([1]; 58% RH, day 26, monohydrate): 1.7582 g
change in starting weight ([1]; 58% RH, day 35): +0.2556 g
sample weight ([1]; 58% RH, day 35): 1.7613 g
change in starting weight ([1]; 58% RH, day 42): +0.2511 g
sample weight ([1]; 58% RH, day 42): 1.7568 g
Percent change based on average of final two weights ([1]; 58% RH, monohydrate): +17%
sample weight ([1]; 75% RH, day 0 (starting weight), monohydrate): 1.5013 g
change in starting weight ([1]; 75% RH, day 1, monohydrate): +0.0470 g
sample weight ([1]; 75% RH, day 1, monohydrate): 1.5483 g
change in starting weight ([1]; 75% RH, day 2, monohydrate): +0.0930 g
sample weight ([1]; 75% RH, day 2, monohydrate): 1.5943 g
change in starting weight ([1]; 75% RH, day 3, monohydrate): +0.1386 g
sample weight ([1]; 75% RH, day 3, monohydrate): 1.6399 g
change in starting weight ([1]; 75% RH, day 4, monohydrate): +0.1819 g
sample weight ([1]; 75% RH, day 4, monohydrate): 1.6832 g
change in starting weight ([1]; 75% RH, day 5, monohydrate): +0.2205 g
sample weight ([1]; 75% RH, day 5, monohydrate): 1.7218 g
change in starting weight ([1]; 75% RH, day 6, monohydrate): +0.2552 g
sample weight ([1]; 75% RH, day 6, monohydrate): 1.7565 g
change in starting weight ([1]; 75% RH, day 7, monohydrate): +0.2874 g
sample weight ([1]; 75% RH, day 7, monohydrate): 1.7887 g
change in starting weight ([1]; 75% RH, day 8, monohydrate): +0.2752 g
sample weight ([1]; 75% RH, day 8, monohydrate): 1.7765 g
change in starting weight ([1]; 75% RH, day 10, monohydrate): +0.2725 g
sample weight ([1]; 75% RH, day 10, monohydrate): 1.7738 g
change in starting weight ([1]; 75% RH, day 11, monohydrate): +0.2768 g
sample weight ([1]; 75% RH, day 11, monohydrate): 1.7781 g
change in starting weight ([1]; 75% RH, day 12, monohydrate): +0.1796 g
sample weight ([1]; 75% RH, day 12, monohydrate): 1.7809 g
change in starting weight ([1]; 75% RH, day 13, monohydrate): +0.2678 g
sample weight ([1]; 75% RH, day 13, monohydrate): 1.7781 g
change in starting weight ([1]; 75% RH, day 14, monohydrate): +0.2755 g
sample weight ([1]; 75% RH, day 14, monohydrate): 1.7768 g
change in starting weight ([1]; 75% RH, day 15, monohydrate): +0.2755 g
sample weight ([1]; 75% RH, day 15, monohydrate): 1.7768 g
change in starting weight ([1]; 75% RH, day 16, monohydrate): +0.2761 g
sample weight ([1]; 75% RH, day 16, monohydrate): 1.7774 g
change in starting weight ([1]; 75% RH, day 17, monohydrate): +0.2741 g
sample weight ([1]; 75% RH, day 17, monohydrate): 1.7754 g
Percent change based on average of final two weights ([1]; 75% RH, monohydrate): +18%
sample weight ([1]; 84% RH, day 0 (starting weight), monohydrate): 1.5068 g
change in starting weight ([1]; 84% RH, day 1, monohydrate): +0.0595 g
sample weight ([1]; 84% RH, day 1, monohydrate): 1.5663 g
change in starting weight ([1]; 84% RH, day 2, monohydrate): +0.1159 g
sample weight ([1]; 84% RH, day 2, monohydrate): 1.6227 g
change in starting weight ([1]; 84% RH, day 3, monohydrate): +0.1762 g
sample weight ([1]; 84% RH, day 3, monohydrate): 1.6830 g
change in starting weight ([1]; 84% RH, day 4, monohydrate): +0.2309 g
sample weight ([1]; 84% RH, day 4, monohydrate): 1.7377 g
change in starting weight ([1]; 84% RH, day 5, monohydrate): +0.2801 g
sample weight ([1]; 84% RH, day 5, monohydrate): 1.7869 g
change in starting weight ([1]; 84% RH, day 6, monohydrate): +0.2965 g
sample weight ([1]; 84% RH, day 6, monohydrate): 1.8033 g
change in starting weight ([1]; 84% RH, day 7, monohydrate): +0.2910 g
sample weight ([1]; 84% RH, day 7, monohydrate): 1.7978 g
change in starting weight ([1]; 84% RH, day 8, monohydrate): +0.2932 g
sample weight ([1]; 84% RH, day 8, monohydrate): 1.8000 g
change in starting weight ([1]; 84% RH, day 10, monohydrate): +0.2997 g
sample weight ([1]; 84% RH, day 10, monohydrate): 1.8065 g
change in starting weight ([1]; 84% RH, day 11, monohydrate): +0.3062 g
sample weight ([1]; 84% RH, day 11, monohydrate): 1.8130 g
change in starting weight ([1]; 84% RH, day 12, monohydrate): +0.3099 g
sample weight ([1]; 84% RH, day 12, monohydrate): 1.8167 g
change in starting weight ([1]; 84% RH, day 13, monohydrate): +0.3090 g
sample weight ([1]; 84% RH, day 13, monohydrate): 1.8158 g
change in starting weight ([1]; 84% RH, day 14, monohydrate): +0.3055 g
sample weight ([1]; 84% RH, day 14, monohydrate): 1.8123 g
change in starting weight ([1]; 84% RH, day 15, monohydrate): +0.2996 g
sample weight ([1]; 84% RH, day 15, monohydrate): 1.8064 g
change in starting weight ([1]; 84% RH, day 16, monohydrate): +0.2961 g
sample weight ([1]; 84% RH, day 16, monohydrate): 1.8029 g
change in starting weight ([1]; 84% RH, day 17, monohydrate): +0.2916 g
sample weight ([1]; 84% RH, day 17, monohydrate): 1.7984 g
Percent change based on average of final two weights ([1]; 84% RH, monohydrate): +20%
crystal form after completion of water uptake experiments (XRPD) ([1]; each humidity utilized): another hydrated crystal form was produced
increase in weight at equilibrium (constant weight) ([1]; each humidity utilized): about 20%
endothermic transition temperature ([2]; DSC, nitrogen, 10° C./minute, monohydrate): about 65 °C
weight loss accompanying the low-temperature endothermic transition ([2]; TGA, transition at about 65° C.): 5%
